Reference: patent US20050042239A1, “Process for preparing biocide formulations” (priority 2003, published 2005)

Assays:
[1] = system: algae; test: Dosing of micro-mixed emulsion to cooling tower water: control of algae; settings: 3 ppm isothiazolone in cooling water of cooling tower
Protocol: A 50 wt. % solution of 4,5-dichloro-2-octyl-3-isothiazolone in benzyl alcohol is fed to an array of slit shaped interdigital micro-mixers at a feed rate of 50 mL/minute, combined with water fed to the micro-mixer at a feed rate of 600 mL/minute. The water contains no surfactants. The resulting emulsion exiting the micro-mixer it is directly dosed to cooling water in a 50,000 gallon […] cooling tower, where is effectively distributed and re-circulated throughout the cooling water. After about 20 minutes, the isothiazolone concentration in the cooling water reaches a desired concentration of 3 ppm and the emulsion feed is stopped. […] Focusing micro-mixers also produce similar results as compared to the micro-mixers described above. Melted 2-octyl-3-isothiazolone as a neat liquid is fed to an array of slit shaped interdigital micro-mixers at a feed rate of 50 mL/minute, combined with water fed to the micro-mixer at a feed rate of 600 mL/minute. The water contains no surfactants and solvents. The resulting emulsion exiting the micro-mixer it is directly dosed to cooling water in a 50,000 gallon […] cooling tower, where is effectively distributed and re-circulated throughout the cooling water. After about 20 minutes, the isothiazolone concentration in the cooling water reaches a desired concentration of 3 ppm and the emulsion feed is stopped. […]

[2] = system: mold; test: Dosing of micro-mixed emulsion to paper pulp slurry tank: mold proofing of paper; settings: surfactant-free emulsion from 50 wt. % solution in benzyl alcohol (56 mL/minute) micro-mixed with water, charged to 10,000 liter pulp slurry tank
Protocol: A 10,000 liter pulp slurry tank has a continuous throughput averaging 6,600 liters/minute. A 50 wt. % solution of 4,5-dichloro-2-octyl-3-isothiazolone in benzyl alcohol is fed to an array of slit shaped interdigital micro-mixers at a feed rate of 56 mL/minute, combined with water fed to the micro-mixer at a feed rate of 600 mL/minute. The water contains no surfactants. The resulting emulsion exiting the micro-mixer is directly charged to water in the pulp slurry tank, where it is effectively distributed and re-circulated throughout the tank water. […] Focusing micro-mixers also produce similar results as compared to the micro-mixers described above.

Structure (SMILES) | control of algae in cooling water ([1]; surfactant- and solvent-free emulsion from melted neat liquid micro-mixed with water) | control of algae in cooling water ([1]; surfactant-free emulsion from 50 wt. % solution in benzyl alcohol micro-mixed with water) | mold proofing in paper prepared from treated pulp [2]
CCCCCCCCn1sccc1=O [2-octyl-3-isothiazolone] | Effective control of algae |  | 
CCCCCCCCn1sc(Cl)c(Cl)c1=O [4,5-dichloro-2-octyl-3-isothiazolone] |  | Effective control of algae | effective mold proofing
